Laboratory results published in patent US8276663B2, “Methods for reducing biological load in subterranean formations” (Halliburton Energy Services Inc., priority 2010, dated 2012).

Assays:
Assay type in all cases: physicochemical
[1] = Compatibility of CMHPG-based fluid (pHaser Frac) and TTPC, FIG. 6
From the text: The starting viscosity of each of the tested fluids, was as follows: 719.1 for the control, 1182.63 for the fluid containing 30 ppm TTPC, 1067.5 for the fluid containing 60 ppm TTPC, and 1015.8 for the fluid containing 125 pp, TTPC.

[2] = Compatibility of HPG-based fluid (HYBOR H) and TTPC, FIG. 2
From the text: Not shown in FIG. 2 is the starting viscosity of each of the tested fluids, which was as follows: 160.2 for the control, 172.9 for the fluid containing 125 ppm TTPC, 185.5 for the fluid containing 250 ppm TTPC, and 188.7 for the fluid containing 375 pp, TTPC.

[3] = Compatibility of CMHPG fluid (SIROCCO) and TTPC, FIG. 1
Description: First, a treatment fluid containing 35 pptg (pounds per thousand gallons) carboxymethyl hydroxypropyl guar (CMHPG) fluid (SIROCCO, commercially available from Halliburton Energy Services, Inc. of Duncan, Okla.) with a pH of approximately 10.1 at 250° F. was tested and found to be compatible with TTPC up to about 250 ppm, as shown in FIG. 1. Not shown in […] is the starting viscosity of each of the tested fluids, which was as follows: 117.1 for the control, 140.1 for the fluid containing 125 ppm TTPC, 116.2 for the fluid containing 250 ppm TTPC, and 147.4 for the fluid containing 375 pp, TTPC.

[4] = Compatibility of guar-based fluid (HYBOR G) and TTPC, FIG. 3
From the text: The starting viscosity of each of the tested fluids, was as follows: 138.1 for the control, 141.3 for the fluid containing 125 ppm TTPC, 125.7 for the fluid containing 250 ppm TTPC, and 128.8 for the fluid containing 375 pp, TTPC.

[5] = Compatibility of guar-based fluid (DELTA 140) and TTPC, FIG. 4
From the text: The starting viscosity of each of the tested fluids, was as follows: 824.2 for the control, 263.7 for the fluid containing 125 ppm TTPC, 567.3 for the fluid containing 250 ppm TTPC, and 721.6 for the fluid containing 375 pp, TTPC.

[6] = Compatibility of guar-based fluid (DELTA 200) and TTPC, FIG. 5
From the text: The starting viscosity of each of the tested fluids, was as follows: 77.0 for the control, 251.9 for the fluid containing 125 ppm TTPC, 59.7 for the fluid containing 250 ppm TTPC, and 96.8 for the fluid containing 375 pp, TTPC.

CCCCCCCCCCCCCC[P+](CCCC)(CCCC)CCCC.[Cl-] [TTPC, tri-n-butyl tetradecyl phosphonium chloride]
TTPC concentration up to which fluid is compatible ([1]; 2 gptg tetramethylammonium chloride, 1.1 gptg pH buffer, 1.4 gptg CL-37, 225° F.): up to 125 ppm | starting viscosity of fluid ([1]; 30 ppm TTPC): 1182.63 | starting viscosity of fluid ([1]; 60 ppm TTPC): 1067.5 | starting viscosity of fluid ([1]; 125 pp, TTPC): 1015.8 | TTPC concentration up to which fluid is compatible ([2]; 1 gptg GasPerm 1000, 4% KCl, 225° F.): up to 375 ppm | starting viscosity of fluid ([2]; 125 ppm TTPC): 172.9 | starting viscosity of fluid ([2]; 250 ppm TTPC): 185.5 | starting viscosity of fluid ([2]; 375 pp, TTPC): 188.7 | starting viscosity of fluid ([3]; 125 ppm TTPC): 140.1 | starting viscosity of fluid ([3]; 250 ppm TTPC): 116.2 | starting viscosity of fluid ([3]; 375 pp, TTPC): 147.4 | TTPC concentration up to which fluid is compatible ([3]; pH approximately 10.1, 250° F.): up to 250 ppm | TTPC concentration up to which fluid is compatible ([4]; 1 gptg GasPerm 1000, 5 pptg sodium thiosulfate, 225° F.): up to 375 ppm | starting viscosity of fluid ([4]; 125 ppm TTPC): 141.3 | starting viscosity of fluid ([4]; 250 ppm TTPC): 125.7 | starting viscosity of fluid ([4]; 375 pp, TTPC): 128.8 | TTPC concentration up to which fluid is compatible ([5]; DELTA 140, 2 gptg tetramethylammonium chloride, 3 gptg BC-140, 140° F.): up to 375 ppm | starting viscosity of fluid ([5]; DELTA 140, 125 ppm TTPC): 263.7 | starting viscosity of fluid ([5]; DELTA 140, 250 ppm TTPC): 567.3 | starting viscosity of fluid ([5]; DELTA 140, 375 pp, TTPC): 721.6 | TTPC concentration up to which fluid is compatible ([6]; DELTA 200, 2 gptg Clayfix II, 2.5 gptg BC-200 UC, 204° F.): up to 375 ppm | starting viscosity of fluid ([6]; DELTA 200, 125 ppm TTPC): 251.9 | starting viscosity of fluid ([6]; DELTA 200, 250 ppm TTPC): 59.7 | starting viscosity of fluid ([6]; DELTA 200, 375 pp, TTPC): 96.8
